Publication PMC6437697 (Journal of Medicinal Chemistry, 2019)

Key:
Assay in all cases: KINOMEscan
[1] = biological target: T1, JNK3 (Homo sapiens, UniProt P53779); assay type: binding; conditions: read-out: % control activity remaining
T1 construct: purchased Eurofins DiscoverX KINOMEscan

[2] = biological target: T2, ERK4 (Homo sapiens, UniProt P31152); assay type: binding; conditions: read-out: % control activity remaining
T2 construct: purchased Eurofins DiscoverX KINOMEscan

[3] = biological target: T3, CAMK2A (Homo sapiens, UniProt Q9UQM7); assay type: binding; conditions: read-out: % control activity remaining
T3 construct: purchased Eurofins DiscoverX KINOMEscan

[4] = biological target: T4, PIK3C2B (Homo sapiens, UniProt O00750); assay type: binding; conditions: read-out: % control activity remaining
T4 construct: purchased Eurofins DiscoverX KINOMEscan

[5] = biological target: T5, DAPK3 (Homo sapiens, UniProt O43293); assay type: binding; conditions: read-out: % control activity remaining
T5 construct: purchased Eurofins DiscoverX KINOMEscan

[6] = biological target: T6, AKT1 (Homo sapiens, UniProt P31749); assay type: binding; conditions: read-out: % control activity remaining
T6 construct: purchased Eurofins DiscoverX KINOMEscan

[7] = biological target: T7, RET(V804M) (Homo sapiens, UniProt P07949, V804M); assay type: binding; conditions: read-out: % control activity remaining
T7 construct: purchased Eurofins DiscoverX KINOMEscan

[8] = biological target: T8, CDK7 (Homo sapiens, UniProt P50613); assay type: binding; conditions: read-out: % control activity remaining
T8 construct: purchased Eurofins DiscoverX KINOMEscan

[9] = biological target: T9, PRKD1 (Homo sapiens, UniProt Q15139); assay type: binding; conditions: read-out: % control activity remaining
T9 construct: purchased Eurofins DiscoverX KINOMEscan
T9 sequence (Q15139 1-912): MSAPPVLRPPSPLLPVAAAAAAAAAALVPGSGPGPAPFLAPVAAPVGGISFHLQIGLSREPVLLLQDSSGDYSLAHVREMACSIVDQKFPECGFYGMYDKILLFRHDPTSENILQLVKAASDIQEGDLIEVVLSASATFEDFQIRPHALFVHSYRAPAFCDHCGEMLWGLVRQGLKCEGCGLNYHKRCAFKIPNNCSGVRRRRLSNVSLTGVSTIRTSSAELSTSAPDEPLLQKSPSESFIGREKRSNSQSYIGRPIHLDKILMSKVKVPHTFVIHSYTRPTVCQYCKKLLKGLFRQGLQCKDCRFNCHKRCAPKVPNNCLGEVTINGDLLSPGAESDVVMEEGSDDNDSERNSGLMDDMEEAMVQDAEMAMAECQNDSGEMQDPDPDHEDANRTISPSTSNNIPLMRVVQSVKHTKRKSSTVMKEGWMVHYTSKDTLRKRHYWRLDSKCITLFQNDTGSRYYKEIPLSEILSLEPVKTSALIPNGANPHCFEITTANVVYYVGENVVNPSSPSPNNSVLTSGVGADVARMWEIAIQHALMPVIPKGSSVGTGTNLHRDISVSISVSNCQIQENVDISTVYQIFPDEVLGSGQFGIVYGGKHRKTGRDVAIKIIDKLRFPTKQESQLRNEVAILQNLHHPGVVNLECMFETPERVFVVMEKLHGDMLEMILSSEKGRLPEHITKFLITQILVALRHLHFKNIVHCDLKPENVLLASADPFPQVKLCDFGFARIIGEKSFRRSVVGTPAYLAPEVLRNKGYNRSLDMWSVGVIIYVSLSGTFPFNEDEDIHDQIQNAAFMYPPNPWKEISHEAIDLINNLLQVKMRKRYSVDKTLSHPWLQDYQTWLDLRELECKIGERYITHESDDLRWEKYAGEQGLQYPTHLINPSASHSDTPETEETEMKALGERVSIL

[10] = biological target: T10, DLK (Homo sapiens, UniProt Q12852); assay type: binding; conditions: read-out: % control activity remaining
T10 construct: purchased Eurofins DiscoverX KINOMEscan
T10 sequence (Q12852 1-859): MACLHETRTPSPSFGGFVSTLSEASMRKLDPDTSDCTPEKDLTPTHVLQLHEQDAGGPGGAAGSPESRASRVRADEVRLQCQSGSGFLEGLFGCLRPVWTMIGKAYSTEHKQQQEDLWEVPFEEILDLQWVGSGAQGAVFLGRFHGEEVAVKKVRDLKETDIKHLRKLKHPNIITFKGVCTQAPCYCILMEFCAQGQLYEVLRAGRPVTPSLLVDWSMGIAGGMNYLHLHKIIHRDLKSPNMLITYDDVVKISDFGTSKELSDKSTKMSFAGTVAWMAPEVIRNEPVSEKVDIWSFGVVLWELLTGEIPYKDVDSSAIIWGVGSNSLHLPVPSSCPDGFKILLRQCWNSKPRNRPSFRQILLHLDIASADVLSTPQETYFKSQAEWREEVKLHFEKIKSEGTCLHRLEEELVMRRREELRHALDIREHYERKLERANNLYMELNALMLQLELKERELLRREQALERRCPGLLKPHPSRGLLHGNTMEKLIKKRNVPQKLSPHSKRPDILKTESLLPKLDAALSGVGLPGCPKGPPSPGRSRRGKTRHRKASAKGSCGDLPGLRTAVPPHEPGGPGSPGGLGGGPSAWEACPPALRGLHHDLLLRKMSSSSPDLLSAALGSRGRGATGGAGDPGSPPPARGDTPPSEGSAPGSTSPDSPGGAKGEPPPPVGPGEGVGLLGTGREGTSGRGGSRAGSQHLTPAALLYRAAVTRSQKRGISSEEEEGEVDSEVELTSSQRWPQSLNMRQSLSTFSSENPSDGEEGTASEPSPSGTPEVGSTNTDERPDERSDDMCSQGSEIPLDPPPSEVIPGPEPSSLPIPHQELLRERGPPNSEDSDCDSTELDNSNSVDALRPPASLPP

[11] = biological target: T11, STK16 (Homo sapiens, UniProt O75716); assay type: binding; conditions: read-out: % control activity remaining
T11 construct: purchased Eurofins DiscoverX KINOMEscan

[12] = system: FLT3(ITD); assay type: binding, human; conditions: 1000 nM
[13] = biological target: T12, PAK2 (Homo sapiens, UniProt Q13177); assay type: binding; conditions: read-out: % control activity remaining
T12 construct: purchased Eurofins DiscoverX KINOMEscan

[14] = biological target: T13, CLK4 (Homo sapiens, UniProt Q9HAZ1); assay type: binding; conditions: read-out: % control activity remaining
T13 construct: purchased Eurofins DiscoverX KINOMEscan

[15] = biological target: T14, NIK (Homo sapiens, UniProt Q99558); assay type: binding; conditions: read-out: % control activity remaining
T14 construct: purchased Eurofins DiscoverX KINOMEscan

[16] = biological target: T15, CDK11 (Homo sapiens, UniProt Q9BWU1); assay type: binding; conditions: read-out: % control activity remaining
T15 construct: purchased Eurofins DiscoverX KINOMEscan

[17] = biological target: T16, RET (Homo sapiens, UniProt P07949); assay type: binding; conditions: read-out: % control activity remaining
T16 construct: purchased Eurofins DiscoverX KINOMEscan

[18] = biological target: T17, FGR (Homo sapiens, UniProt P09769); assay type: binding; conditions: read-out: % control activity remaining
T17 construct: purchased Eurofins DiscoverX KINOMEscan
T17 sequence (P09769 whole entry): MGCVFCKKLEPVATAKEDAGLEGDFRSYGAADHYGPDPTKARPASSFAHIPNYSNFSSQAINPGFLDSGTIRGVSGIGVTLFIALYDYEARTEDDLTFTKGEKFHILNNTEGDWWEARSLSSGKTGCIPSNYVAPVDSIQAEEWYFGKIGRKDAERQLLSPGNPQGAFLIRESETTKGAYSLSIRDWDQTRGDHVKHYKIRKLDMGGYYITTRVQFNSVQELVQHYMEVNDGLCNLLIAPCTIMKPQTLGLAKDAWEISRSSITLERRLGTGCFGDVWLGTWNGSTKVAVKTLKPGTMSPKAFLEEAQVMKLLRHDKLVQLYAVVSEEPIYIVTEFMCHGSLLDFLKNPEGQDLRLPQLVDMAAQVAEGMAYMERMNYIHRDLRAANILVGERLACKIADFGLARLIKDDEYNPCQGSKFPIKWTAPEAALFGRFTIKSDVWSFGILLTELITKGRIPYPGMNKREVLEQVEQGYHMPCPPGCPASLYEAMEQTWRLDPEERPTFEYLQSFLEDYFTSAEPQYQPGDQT

T7 sequence (P07949 29-1114 V804M): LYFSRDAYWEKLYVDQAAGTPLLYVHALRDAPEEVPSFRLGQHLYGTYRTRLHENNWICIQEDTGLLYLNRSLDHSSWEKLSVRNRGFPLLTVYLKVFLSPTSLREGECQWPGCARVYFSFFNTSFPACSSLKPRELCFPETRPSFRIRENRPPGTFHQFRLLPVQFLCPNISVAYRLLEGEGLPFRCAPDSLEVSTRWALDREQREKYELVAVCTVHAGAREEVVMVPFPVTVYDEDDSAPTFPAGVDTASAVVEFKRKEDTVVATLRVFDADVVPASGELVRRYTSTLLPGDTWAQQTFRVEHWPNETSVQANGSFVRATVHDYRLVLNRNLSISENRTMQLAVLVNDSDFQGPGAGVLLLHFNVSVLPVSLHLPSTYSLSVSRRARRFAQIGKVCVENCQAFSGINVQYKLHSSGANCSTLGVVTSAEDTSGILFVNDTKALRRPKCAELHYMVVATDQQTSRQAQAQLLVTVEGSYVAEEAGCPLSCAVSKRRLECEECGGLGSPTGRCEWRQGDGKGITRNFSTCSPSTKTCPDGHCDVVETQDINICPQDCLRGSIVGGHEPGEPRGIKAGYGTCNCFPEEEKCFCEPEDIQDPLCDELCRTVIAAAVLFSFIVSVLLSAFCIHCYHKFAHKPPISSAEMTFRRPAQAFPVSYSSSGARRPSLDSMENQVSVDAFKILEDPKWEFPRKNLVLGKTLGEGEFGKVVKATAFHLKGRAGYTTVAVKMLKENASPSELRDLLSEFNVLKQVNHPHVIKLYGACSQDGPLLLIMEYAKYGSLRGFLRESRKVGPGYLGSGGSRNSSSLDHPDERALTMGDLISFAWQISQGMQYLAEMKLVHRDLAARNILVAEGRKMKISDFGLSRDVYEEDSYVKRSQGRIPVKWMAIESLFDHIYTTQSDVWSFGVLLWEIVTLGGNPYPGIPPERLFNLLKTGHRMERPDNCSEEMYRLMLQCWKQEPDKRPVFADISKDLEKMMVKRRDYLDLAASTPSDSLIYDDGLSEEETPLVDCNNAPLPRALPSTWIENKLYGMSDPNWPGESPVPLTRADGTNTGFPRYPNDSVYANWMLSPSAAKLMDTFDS
T6 sequence (P31749 whole entry): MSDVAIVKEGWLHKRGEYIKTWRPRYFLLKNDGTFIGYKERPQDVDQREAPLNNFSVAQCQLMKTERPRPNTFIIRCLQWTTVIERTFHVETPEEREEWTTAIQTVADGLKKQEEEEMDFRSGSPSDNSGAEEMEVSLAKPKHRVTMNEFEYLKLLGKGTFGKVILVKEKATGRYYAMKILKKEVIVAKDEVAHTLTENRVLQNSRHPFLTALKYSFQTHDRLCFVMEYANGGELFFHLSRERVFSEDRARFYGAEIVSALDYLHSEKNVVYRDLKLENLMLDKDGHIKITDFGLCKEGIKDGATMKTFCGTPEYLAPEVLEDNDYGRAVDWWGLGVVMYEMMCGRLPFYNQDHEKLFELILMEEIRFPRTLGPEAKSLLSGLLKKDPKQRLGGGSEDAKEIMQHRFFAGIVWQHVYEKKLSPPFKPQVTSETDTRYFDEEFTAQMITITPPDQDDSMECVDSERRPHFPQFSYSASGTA
T2 sequence (P31152 whole entry): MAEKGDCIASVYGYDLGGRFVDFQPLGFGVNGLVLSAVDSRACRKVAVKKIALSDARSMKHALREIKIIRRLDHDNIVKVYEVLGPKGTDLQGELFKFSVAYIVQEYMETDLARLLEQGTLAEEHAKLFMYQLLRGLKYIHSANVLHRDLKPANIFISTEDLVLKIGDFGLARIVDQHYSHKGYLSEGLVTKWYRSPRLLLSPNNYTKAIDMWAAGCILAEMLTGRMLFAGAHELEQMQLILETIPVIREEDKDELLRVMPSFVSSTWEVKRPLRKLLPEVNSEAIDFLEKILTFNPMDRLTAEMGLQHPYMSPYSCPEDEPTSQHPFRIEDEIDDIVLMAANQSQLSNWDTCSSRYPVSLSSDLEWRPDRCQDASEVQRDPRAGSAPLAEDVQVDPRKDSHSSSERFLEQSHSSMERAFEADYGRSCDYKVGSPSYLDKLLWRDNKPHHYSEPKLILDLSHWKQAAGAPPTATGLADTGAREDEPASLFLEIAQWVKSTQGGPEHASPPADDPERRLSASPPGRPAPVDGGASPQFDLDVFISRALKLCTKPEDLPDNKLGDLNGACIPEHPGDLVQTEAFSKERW
T16 sequence (P07949 29-1114): as the sequence (P07949 29-1114 V804M) above, with M776V counted along it
T12 sequence (Q13177 whole entry): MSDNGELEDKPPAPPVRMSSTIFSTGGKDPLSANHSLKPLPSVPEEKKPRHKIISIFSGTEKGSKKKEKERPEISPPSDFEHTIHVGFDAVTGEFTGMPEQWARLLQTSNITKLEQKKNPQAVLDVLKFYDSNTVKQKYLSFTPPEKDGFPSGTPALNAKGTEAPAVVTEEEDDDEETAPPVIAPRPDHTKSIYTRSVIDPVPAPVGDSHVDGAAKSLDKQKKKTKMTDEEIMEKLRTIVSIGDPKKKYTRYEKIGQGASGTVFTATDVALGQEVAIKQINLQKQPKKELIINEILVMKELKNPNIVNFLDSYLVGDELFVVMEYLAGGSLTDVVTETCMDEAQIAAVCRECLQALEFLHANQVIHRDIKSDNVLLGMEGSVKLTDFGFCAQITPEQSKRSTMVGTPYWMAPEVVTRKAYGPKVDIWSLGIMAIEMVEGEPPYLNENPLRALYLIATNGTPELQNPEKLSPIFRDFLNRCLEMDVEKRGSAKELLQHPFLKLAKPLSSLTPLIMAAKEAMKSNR
T8 sequence (P50613 whole entry): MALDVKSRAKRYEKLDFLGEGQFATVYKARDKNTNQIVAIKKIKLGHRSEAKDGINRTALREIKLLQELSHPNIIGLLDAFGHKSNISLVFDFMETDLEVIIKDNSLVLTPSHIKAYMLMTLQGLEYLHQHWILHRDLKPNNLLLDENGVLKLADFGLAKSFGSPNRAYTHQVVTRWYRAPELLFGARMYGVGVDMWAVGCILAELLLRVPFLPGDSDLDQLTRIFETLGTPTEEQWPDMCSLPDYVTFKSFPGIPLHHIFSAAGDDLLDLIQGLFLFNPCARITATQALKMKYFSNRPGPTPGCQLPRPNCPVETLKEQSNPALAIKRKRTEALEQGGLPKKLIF
T1 sequence (P53779 whole entry): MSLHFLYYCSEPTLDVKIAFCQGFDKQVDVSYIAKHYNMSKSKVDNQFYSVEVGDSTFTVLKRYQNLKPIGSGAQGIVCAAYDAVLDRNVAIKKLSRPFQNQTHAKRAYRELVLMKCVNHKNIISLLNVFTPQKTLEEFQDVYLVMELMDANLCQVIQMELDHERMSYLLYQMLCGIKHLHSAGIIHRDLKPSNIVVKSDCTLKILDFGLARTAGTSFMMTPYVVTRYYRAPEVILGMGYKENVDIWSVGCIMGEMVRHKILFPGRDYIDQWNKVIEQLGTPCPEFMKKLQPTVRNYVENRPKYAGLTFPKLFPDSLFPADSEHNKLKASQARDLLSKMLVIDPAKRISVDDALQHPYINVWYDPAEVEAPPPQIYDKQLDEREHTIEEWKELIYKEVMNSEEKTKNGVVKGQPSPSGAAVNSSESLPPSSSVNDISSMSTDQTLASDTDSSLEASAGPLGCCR
T3 sequence (Q9UQM7 whole entry): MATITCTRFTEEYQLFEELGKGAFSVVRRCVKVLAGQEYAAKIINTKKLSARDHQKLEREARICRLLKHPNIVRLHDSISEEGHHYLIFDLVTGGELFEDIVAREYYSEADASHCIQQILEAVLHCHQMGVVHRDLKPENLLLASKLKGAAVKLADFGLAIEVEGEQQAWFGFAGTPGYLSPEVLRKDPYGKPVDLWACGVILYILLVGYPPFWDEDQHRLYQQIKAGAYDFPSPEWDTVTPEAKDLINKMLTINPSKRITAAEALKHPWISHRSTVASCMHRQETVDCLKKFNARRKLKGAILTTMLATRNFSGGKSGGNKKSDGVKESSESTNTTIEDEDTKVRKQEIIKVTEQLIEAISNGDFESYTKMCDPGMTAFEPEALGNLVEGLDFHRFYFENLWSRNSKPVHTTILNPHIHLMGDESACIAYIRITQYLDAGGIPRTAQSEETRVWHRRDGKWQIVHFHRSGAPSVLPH
T13 sequence (Q9HAZ1 whole entry): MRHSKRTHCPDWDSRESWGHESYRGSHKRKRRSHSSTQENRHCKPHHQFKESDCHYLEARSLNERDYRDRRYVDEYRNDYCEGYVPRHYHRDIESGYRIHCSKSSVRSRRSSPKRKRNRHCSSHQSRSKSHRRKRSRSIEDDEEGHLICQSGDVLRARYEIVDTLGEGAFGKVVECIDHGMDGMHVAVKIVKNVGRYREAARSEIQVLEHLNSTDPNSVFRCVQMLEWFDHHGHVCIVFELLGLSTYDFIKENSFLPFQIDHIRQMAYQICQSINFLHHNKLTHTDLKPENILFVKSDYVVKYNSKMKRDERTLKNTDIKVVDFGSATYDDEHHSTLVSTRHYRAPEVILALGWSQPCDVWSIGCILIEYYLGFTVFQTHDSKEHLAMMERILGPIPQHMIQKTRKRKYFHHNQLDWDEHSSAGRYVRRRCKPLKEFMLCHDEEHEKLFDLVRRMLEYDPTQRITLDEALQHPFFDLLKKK

| SMILES | remaining binding at 1 µM [1] | remaining binding at 1 µM [2] | remaining binding at 1 µM [3] | remaining binding at 1 µM [4] | remaining binding at 1 µM [5] | remaining binding at 1 µM [6] | remaining binding at 1 µM [7] | remaining binding at 1 µM [8] | remaining binding at 1 µM [9] | remaining binding at 1 µM [10] | remaining binding at 1 µM [11] | % control activity remaining [12] | remaining binding at 1 µM [13] | remaining binding at 1 µM [14] | remaining binding at 1 µM [15] | remaining binding at 1 µM [16] | remaining binding at 1 µM [17] | remaining binding at 1 µM [18] |
| --- | --- | --- | --- | --- | --- | --- | --- | --- | --- | --- | --- | --- | --- | --- | --- | --- | --- | --- |
| CN1CCC(CNc2cc(Cl)nn3c(-c4cc5nc(Nc6ccccc6)[nH]c5cc4F)cnc23)CC1 [compound 31, 6-Chloro-3-(6-fluoro-2-(phenylamino)-1H-benzo[d]imidazol-5-yl)-N-((1-methylpiperidin-4-yl)methyl)imidazo[1,2-b]pyridazin-8-amine] | 99% | 93% | 99% | 100% | 84% | 100% | 100% | 61% | 99% | 100% | 96% | 91% | 91% | 20% | 92% | 91% | 96% | 100% |
| O=C(CN1CCOCC1)N[C@H]1CC[C@H](Nc2cc(Cl)nn3c(-c4ccc5[nH]ncc5c4)cnc23)CC1 [compound 26] | 79% | 99% | 47% | 97% | 34% | 100% | 82% | 16% | 98% | 83% | 83% | 0.25% | 76% | 2.1% | 78% | 98% | 100% | 93% |
| Clc1cc(NCC2CC2)c2ncc(-c3ccc4[nH]ncc4c3)n2n1 [compound 2, 6-Chloro-N-(cyclopropylmethyl)-3-(1H-indazol-5-yl)imidazo[1,2-b]pyridazin-8-amine] | 89% | 100% | 100% | 86% | 85% | 98% | 97% | 68% | 100% | 89% | 100% | 5.6% | 71% | 1.5% | 90% | 97% | 100% | 75% |
